# Measurements reported in patent US10118901B2 (priority 2013, dated 2018).
# What was measured:
# [1] = tested on: T-47D; assay: NCI-60 screen at 10 μM: T-47D; type: cell-based, human; settings: Breast Cancer T-47D; 10 μM single dose; 48 hrs
# Protocol: (§1) NL-101 and CY-102 was sent to U.S. National Cancer Institute (NCI) for NCI 60-cell line screening using a single compound dose (10 μM).
# (§2) The human tumor cell lines of the cancer screening panel were grown in RPMI 1640 medium containing 5% fetal bovine serum (5% FBS) and 2 mM L-glutamine. For a typical screening experiment, cells were inoculated into 96-well microtiter plates in 100 μL, at plating densities ranging from 5,000 to 40,000 cells/well depending on the doubling time of individual cell lines. After cell inoculation, the microtiter plates were incubated at 37° C., 5% CO2, 95% air, and 100% relative humidity for 24 h prior to addition of experimental compounds. […]
# (§3) Following drug addition, the plates were incubated for an additional 48 hrs at 37° C., 5% CO2, 95% air, and 100% relative humidity. […] Bound stain was subsequently solubilized with 10 mM trizma base, and the absorbance was read on an automated plate reader at a wavelength of 515 nm. […]
# (§4) Using the seven absorbance measurements [time zero, (Tz), control growth, (C), and test growth in the presence of drug at the 10 μM concentration levels (Ti)], percentage growth was calculated at each of the drug concentrations levels. Percentage growth inhibition was calculated as: [(Ti−Tz)/(C−Tz)]×100 for which Ti>/=Tz or [(Ti−Tz)/Tz]×100 for which Ti<Tz.
# [2] = tested on: NCI-H522; assay: NCI-60 screen at 10 μM: NCI-H522; type: cell-based, human; settings: NSCLC NCI-H522; 10 μM single dose; 48 hrs
# Protocol: as §1, §2, §3, §4
# [3] = tested on: BT-549; assay: NCI-60 screen at 10 μM: BT-549; type: cell-based, human; settings: Breast Cancer BT-549; 10 μM single dose; 48 hrs
# Protocol: as §1, §2, §3, §4
# [4] = tested on: NCI-60 cell lines; assay: NCI-60 cell line panel screening of NL-101 (NSC#751447); type: cell-based, human
# [5] = tested on: MDA-MB-231; assay: NCI-60 screen at 10 μM: MDA-MB-231; type: cell-based, human; settings: Breast Cancer MDA-MB-231; 10 μM single dose; 48 hrs
# Protocol: as §1, §2, §3, §4
# [6] = tested on: HCC-2998; assay: NCI-60 screen at 10 μM: HCC-2998; type: cell-based, human; settings: Colon Cancer HCC-2998; 10 μM single dose; 48 hrs
# Protocol: as §1, §2, §3, §4
# [7] = tested on: SK-MEL-5; assay: NCI-60 screen at 10 μM: SK-MEL-5; type: cell-based, human; settings: Melanoma SK-MEL-5; 10 μM single dose; 48 hrs
# Protocol: as §1, §2, §3, §4
# [8] = tested on: EKVX; assay: NCI-60 screen at 10 μM: EKVX; type: cell-based, human; settings: NSCLC EKVX; 10 μM single dose; 48 hrs
# Protocol: as §1, §2, §3, §4
# [9] = tested on: CCRF-CEM; assay: NCI-60 screen at 10 μM: CCRF-CEM; type: cell-based, human; settings: Leukemia CCRF-CEM; 10 μM single dose; 48 hrs
# Protocol: as §1, §2, §3, §4
# [10] = tested on: IGROV1; assay: NCI-60 screen at 10 μM: IGROV1; type: cell-based, human; settings: Ovarian Cancer IGROV1; 10 μM single dose; 48 hrs
# Protocol: as §1, §2, §3, §4
# [11] = tested on: MOLT-4; assay: NCI-60 screen at 10 μM: MOLT-4; type: cell-based, human; settings: Leukemia MOLT-4; 10 μM single dose; 48 hrs
# Protocol: as §1, §2, §3, §4
# [12] = tested on: ACHN; assay: NCI-60 screen at 10 μM: ACHN; type: cell-based, human; settings: Renal Cancer ACHN; 10 μM single dose; 48 hrs
# Protocol: as §1, §2, §3, §4
# [13] = tested on: TK-10; assay: NCI-60 screen at 10 μM: TK-10; type: cell-based, human; settings: Renal Cancer TK-10; 10 μM single dose; 48 hrs
# Protocol: as §1, §2, §3, §4
# [14] = tested on: SF-539; assay: NCI-60 screen at 10 μM: SF-539; type: cell-based, human; settings: CNS Cancer (Glioma) SF-539; 10 μM single dose; 48 hrs
# Protocol: as §1, §2, §3, §4
# [15] = Water solubility; type: physicochemical; settings: thermodynamic from solid; distilled water at room temperature, visual inspection
# Protocol: To measure water solubility, to approximately 10 mg of a sample in a tube-stoppered 10 mL graduated cylinder, increasing volumes of distilled water at room temperature were added according to the steps shown in the table below:
# After each addition of water to give the indicated total volume, the mixture was vortexed or sonicated for 1 min and was visually inspected for any undissolved parts of the sample. If, after a total of 10 mL of water had been added (step 5), the sample or parts of it remained undissolved, the contents of the measuring cylinder was transferred to a 100 mL measuring cylinder which was then filled up with water up to 100 mL (20 ml, 25 ml, 50 ml, 100 ml) and shaken. The approximate solubility was given in the table under that volume of added water in which complete dissolution of the sample occurred. If the substance was still apparently insoluble, further dilution was undertaken to ascertain whether the column elution or the flask solubility method should be used.
# [16] = molecular target: HDAC enzymes (Hela Nuclear Extract); type: biochemical
# [17] = molecular target: hERG (Human Ether-á-go-go-Related-Gene) (Homo sapiens, UniProt Q12809)
# Chain of hERG (Human Ether-á-go-go-Related-Gene) (Q12809 whole entry): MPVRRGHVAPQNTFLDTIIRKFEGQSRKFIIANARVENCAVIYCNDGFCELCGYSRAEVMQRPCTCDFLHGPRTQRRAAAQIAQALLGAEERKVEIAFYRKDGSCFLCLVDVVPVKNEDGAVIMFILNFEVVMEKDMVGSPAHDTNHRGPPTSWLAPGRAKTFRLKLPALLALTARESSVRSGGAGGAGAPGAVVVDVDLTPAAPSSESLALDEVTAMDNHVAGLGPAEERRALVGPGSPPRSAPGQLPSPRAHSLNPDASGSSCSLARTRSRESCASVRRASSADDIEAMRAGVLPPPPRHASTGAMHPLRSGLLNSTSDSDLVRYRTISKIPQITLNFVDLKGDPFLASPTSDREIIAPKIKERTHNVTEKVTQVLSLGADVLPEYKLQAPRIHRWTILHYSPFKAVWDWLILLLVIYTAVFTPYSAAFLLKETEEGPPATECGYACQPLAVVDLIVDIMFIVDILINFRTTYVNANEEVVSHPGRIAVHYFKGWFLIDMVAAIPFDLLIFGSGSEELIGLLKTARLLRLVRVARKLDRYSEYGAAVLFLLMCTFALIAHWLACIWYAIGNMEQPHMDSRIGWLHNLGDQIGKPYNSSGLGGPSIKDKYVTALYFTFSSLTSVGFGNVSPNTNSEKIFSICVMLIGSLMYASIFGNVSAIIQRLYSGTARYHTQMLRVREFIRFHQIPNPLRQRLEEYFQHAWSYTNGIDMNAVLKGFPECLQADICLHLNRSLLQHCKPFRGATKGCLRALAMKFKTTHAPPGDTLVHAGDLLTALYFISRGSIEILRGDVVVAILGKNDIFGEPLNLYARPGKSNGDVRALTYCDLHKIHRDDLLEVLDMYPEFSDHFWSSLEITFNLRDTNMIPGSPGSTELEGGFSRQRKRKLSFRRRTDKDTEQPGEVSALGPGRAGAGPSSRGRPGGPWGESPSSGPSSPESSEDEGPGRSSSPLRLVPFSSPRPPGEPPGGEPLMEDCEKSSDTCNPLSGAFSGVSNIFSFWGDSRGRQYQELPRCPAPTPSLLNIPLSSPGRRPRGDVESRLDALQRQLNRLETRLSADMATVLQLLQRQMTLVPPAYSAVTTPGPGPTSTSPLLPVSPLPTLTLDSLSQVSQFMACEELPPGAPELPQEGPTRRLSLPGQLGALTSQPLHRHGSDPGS
Compound,Growth % [1] [%],Growth % [2] [%],Growth % [3] [%],"IC50 ([4]; Homo sapiens, on average, read-out: average cellular IC50 in the 60 cancer cell lines) [nM]",fold more potent than Bendamustine in the NCI-60 cell lines ([4]; versus Bendamustine),Growth % [5] [%],Growth % [6] [%],Growth % [7] [%],Growth % [8] [%],Growth % [9] [%],Growth % [10] [%],Growth % [11] [%],Growth % [12] [%],Growth % [13] [%],Growth % [14] [%],solubility at 1 min [15] [mg/mL],"IC50 ([16]; Hela nuclear extract, N/A* = No HDAC activity up to highest testing concentration of 10 μM) [nM]",fold more potent than SAHA in the HDAC (nuclear extract) assay ([16]; versus SAHA),fold less cardiotoxicity compared to NL-101 (hERG assay) [17]
Cn1c(CCCCCCC(=O)NO)nc2cc(N(CCCl)CCCl)ccc21 [NL-101],−16.57,−5.90,79.21,~2000,25-100 fold,72.24,86.98,−6.55,92.48,17.16,55.99,18.01,14.30,48.48,23.72,–,–,–,–
Cn1c(CCNCc2ccc(/C=C/C(=O)NO)cc2)nc2cc(N(CCCl)CCCl)ccc21 [CY-102],−27.48,–,−33.26,–,–,−35.33,−80.55,−79.31,–,–,−14.43,2.17,−19.97,−28.81,–,> 20,3.5,about 10 fold,5-10 fold
